Measurements taken from ChEMBL document CHEMBL1201862, “PubChem BioAssay data set” (2004).
Activity calls are given as the source filed them.

Experiments:
[1] = target: T1, Oxysterols receptor LXR-beta (Homo sapiens, UniProt P55055); format: functional, cell-based;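 further: agonist activity at LXR measured by a cell-based luminescence readout across a dose range, run as a counterscreen for daf-12 agonists; HEK293 cells with Gal4-LXR fusion and GAL4-driven luciferase reporter; potency for activation of Gal4-LXR reporter so compounds are agonists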
T1 sequence (P55055 whole entry): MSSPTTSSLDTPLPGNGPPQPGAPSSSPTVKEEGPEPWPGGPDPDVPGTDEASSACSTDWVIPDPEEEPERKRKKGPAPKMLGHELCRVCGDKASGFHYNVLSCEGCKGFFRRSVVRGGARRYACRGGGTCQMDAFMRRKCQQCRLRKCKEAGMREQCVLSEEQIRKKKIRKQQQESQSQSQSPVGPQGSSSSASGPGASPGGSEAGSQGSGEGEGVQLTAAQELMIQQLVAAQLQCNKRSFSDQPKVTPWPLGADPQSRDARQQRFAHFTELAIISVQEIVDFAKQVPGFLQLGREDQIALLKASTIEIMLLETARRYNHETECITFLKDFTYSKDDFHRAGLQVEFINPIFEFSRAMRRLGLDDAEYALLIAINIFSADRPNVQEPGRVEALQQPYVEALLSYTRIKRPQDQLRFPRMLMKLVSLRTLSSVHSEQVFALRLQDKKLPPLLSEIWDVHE

[2] = Luminescence Cell-Based Dose Retest to Confirm Inhibitors of Cancer Stem Cells. [Related pubchem assays (depositor defined):AID2717, AID2721]; format: functional; conditions: Homo sapiens
[3] = target: Heat shock protein HSP 90-alpha (Homo sapiens, UniProt P07900); format: functional, organism-based
[4] = cytotoxicity in OVCAR8 ovarian cancer cells, dose response, PAX8 project, cell-based, plate reader, dry powder samples (AID 743197); format: functional; conditions: OVCAR-8
[5] = NIH:OVCAR-3 ovarian cancer cell cytotoxicity, dose response, PAX8 inhibitor project, plate reader, dry powder samples (AID 743044); format: functional, cell-based
Paired box protein Pax-8 = Paired box protein Pax-8 (Homo sapiens, UniProt Q06710); assay: inhibitors of PAX8-driven TPO luciferase reporter, dose response, RMG-I cells, cherry-pick (AID 687027); format: functional, cell-based;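 further: luciferase reporter driven by Pax8 target thyroperoxidase promoter measured by SteadyGlo luminescence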
Sequence of Paired box protein Pax-8 (Q06710 whole entry): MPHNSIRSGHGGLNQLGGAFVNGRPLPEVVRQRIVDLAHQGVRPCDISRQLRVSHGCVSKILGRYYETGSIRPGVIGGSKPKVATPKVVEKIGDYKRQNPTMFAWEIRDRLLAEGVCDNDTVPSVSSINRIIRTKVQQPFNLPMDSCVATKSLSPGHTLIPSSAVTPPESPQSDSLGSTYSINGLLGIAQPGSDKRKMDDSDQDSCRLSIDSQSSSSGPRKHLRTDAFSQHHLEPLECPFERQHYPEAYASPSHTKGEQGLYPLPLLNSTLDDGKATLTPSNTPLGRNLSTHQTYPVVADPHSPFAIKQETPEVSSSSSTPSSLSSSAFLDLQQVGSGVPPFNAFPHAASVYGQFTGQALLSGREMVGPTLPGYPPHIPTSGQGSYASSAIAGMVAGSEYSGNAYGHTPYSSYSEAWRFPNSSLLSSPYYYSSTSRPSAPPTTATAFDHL

[6] = non-specific cell cytotoxicity, dose response, cytotoxicity control for PAX8 inhibitor project, plate reader, dry powder samples (AID 743021); format: functional, cell-based
[7] = CEM21 lymphoblast cell cytotoxicity, dose response, cytotoxicity control for viral fusion inhibitor project, CellTiter-Glo luminescence, cherry-picked (AID 652042); format: functional, cell-based;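 further: potency for signal decrease meaning cytotoxicity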
[8] = inhibitors of HIV Env-driven cell fusion, dose response, cherry-pick (AID 652057); format: functional, cell-based
[9] = ZM109 Env clade C HIV-1 fusion inhibitors, dose response, HeLa effector, CEM target cells, luciferase, cherry-pick (AID 652058); format: functional, cell-based
[10] = off-target signal loss in HeLa-CEM21 co-culture – HeLa F-luc CTL cells, cherry-picked, counter-screen for HIV-1 Env fusion inhibitor project, dose response (AID 652040); format: functional, cell-based;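 further: potency for signal decrease marking cytotoxic or nonspecific inhibition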
[11] = inhibitors of clade B AD8 Env fusion, dose response, cell-based, cherry-pick (AID 652062); format: functional;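 further: luciferase signal from cell-cell fusion driven by HIV-1 clade B AD8 Env; potency is for inhibitors of fusion seen as a drop in luminescence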
Cytochrome P450 2C9 = Cytochrome P450 2C9 (Homo sapiens, UniProt P11712)
Sequence of Cytochrome P450 2C9 (P11712 whole entry): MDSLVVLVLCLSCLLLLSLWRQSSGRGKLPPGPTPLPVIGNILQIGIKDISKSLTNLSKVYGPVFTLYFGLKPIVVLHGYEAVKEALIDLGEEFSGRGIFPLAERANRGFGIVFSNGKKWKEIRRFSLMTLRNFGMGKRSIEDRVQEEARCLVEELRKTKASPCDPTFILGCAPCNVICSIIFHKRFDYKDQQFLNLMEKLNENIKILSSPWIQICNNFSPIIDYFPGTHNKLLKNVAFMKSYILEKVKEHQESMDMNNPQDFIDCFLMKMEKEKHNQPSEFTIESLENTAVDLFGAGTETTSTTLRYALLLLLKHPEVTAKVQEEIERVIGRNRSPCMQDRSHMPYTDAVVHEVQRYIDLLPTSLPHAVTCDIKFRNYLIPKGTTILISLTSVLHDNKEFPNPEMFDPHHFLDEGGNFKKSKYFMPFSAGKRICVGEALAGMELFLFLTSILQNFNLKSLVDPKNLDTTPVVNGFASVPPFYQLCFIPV

[12] = target: Cyclin-dependent kinase 5/CDK5 activator 1 (Homo sapiens, UniProt Q00535); assay: CDK5/p35 kinase inhibitors, dose response, biochemical, cherry-picked samples, set 2 (AID 504545)
Sequence of Cyclin-dependent kinase 5/CDK5 activator 1 (Q00535 whole entry, the tested form may be a part): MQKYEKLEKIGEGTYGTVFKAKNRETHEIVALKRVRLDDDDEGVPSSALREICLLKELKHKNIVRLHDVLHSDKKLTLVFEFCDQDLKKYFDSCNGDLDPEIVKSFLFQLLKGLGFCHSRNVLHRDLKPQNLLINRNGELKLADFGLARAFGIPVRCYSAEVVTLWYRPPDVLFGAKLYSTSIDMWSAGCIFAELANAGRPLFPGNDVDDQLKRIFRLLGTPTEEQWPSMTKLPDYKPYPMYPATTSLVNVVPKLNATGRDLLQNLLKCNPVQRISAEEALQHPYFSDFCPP
Sequence of Cyclin-dependent kinase 5/CDK5 activator 1 (Q15078 whole entry, further chain, the tested form may be a part): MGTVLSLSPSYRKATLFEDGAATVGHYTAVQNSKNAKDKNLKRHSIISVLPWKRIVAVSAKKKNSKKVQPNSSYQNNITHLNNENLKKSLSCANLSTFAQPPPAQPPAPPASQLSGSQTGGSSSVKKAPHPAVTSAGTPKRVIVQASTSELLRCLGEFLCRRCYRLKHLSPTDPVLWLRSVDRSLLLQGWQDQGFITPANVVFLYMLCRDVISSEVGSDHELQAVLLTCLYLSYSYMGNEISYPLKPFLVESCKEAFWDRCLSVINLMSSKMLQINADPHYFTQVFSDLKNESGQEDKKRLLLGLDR

[13] = target: Disintegrin and metalloproteinase domain-containing protein 17 (Homo sapiens, UniProt P78536); assay: exosite inhibitors of ADAM17, dose response, biochemical (AID 743260)
Sequence of Disintegrin and metalloproteinase domain-containing protein 17 (P78536 whole entry, the tested form may be a part): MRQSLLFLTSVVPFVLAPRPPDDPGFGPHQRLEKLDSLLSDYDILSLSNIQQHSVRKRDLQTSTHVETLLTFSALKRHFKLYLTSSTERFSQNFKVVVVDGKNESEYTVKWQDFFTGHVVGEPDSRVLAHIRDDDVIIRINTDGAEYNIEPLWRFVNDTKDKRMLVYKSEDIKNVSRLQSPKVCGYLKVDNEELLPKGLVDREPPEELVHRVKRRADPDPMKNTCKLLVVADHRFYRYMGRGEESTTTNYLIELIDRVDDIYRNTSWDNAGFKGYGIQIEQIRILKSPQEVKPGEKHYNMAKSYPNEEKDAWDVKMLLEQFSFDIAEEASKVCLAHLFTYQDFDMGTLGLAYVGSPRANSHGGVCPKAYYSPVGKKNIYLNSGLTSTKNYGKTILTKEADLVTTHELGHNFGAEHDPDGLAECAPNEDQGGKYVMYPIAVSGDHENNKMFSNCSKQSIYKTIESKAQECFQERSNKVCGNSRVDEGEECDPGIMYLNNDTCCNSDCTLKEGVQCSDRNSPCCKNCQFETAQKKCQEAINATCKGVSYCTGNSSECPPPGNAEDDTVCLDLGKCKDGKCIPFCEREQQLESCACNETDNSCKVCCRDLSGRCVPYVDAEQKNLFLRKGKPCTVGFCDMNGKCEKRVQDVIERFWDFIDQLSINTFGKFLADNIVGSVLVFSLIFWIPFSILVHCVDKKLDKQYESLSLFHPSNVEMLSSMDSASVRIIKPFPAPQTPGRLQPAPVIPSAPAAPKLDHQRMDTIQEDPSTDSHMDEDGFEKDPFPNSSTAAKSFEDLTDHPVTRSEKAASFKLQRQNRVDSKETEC

H9c2 = assay: cells; format: functional, cell-based; conditions: Rattus norvegicus, H9c2, Myocardium;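 further: confirmatory concentration-response retest of ultra-high-throughput screening hits for modulation of myocardial damage; cell death induced by hydrogen peroxide oxidative stress; compound pretreatment for 60 min then peroxide exposure for 2 h; potency is for protecting the cells against peroxide damage rather than for killing them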
[14] = HepG2 cell cytotoxicity, dose response, cytotoxicity control for Shn3 inhibitor project, CellTiter-Glo, cherry-picked (AID 624134); format: functional, cell-based
[15] = Shn3 3'UTR reporter inhibitors, dose response, cell-based, Clone20 osteoblasts, firefly luciferase, cherry-picked (AID 624132); format: functional;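 further: firefly luciferase luminescence from reporter carrying the Shn3 3'UTR in osteoblasts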
[16] = ADAM10 protease inhibitors, dose response, selectivity assay for ADAM17 exosite inhibitor project, biochemical, FRET peptide substrate, recombinant human ADAM10 (AID 743259);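 further: ADAM10 enzyme cleaving a FRET peptide substrate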
[17] = target: T2, DNA repair and recombination protein RAD54-like (Homo sapiens, UniProt Q92698); assay: inhibitors of human RAD54 branch migration, confirmation, biochemical, fluorescence, cherry-picked samples, dose series (AID 651657); format: functional
T2 sequence (Q92698 whole entry): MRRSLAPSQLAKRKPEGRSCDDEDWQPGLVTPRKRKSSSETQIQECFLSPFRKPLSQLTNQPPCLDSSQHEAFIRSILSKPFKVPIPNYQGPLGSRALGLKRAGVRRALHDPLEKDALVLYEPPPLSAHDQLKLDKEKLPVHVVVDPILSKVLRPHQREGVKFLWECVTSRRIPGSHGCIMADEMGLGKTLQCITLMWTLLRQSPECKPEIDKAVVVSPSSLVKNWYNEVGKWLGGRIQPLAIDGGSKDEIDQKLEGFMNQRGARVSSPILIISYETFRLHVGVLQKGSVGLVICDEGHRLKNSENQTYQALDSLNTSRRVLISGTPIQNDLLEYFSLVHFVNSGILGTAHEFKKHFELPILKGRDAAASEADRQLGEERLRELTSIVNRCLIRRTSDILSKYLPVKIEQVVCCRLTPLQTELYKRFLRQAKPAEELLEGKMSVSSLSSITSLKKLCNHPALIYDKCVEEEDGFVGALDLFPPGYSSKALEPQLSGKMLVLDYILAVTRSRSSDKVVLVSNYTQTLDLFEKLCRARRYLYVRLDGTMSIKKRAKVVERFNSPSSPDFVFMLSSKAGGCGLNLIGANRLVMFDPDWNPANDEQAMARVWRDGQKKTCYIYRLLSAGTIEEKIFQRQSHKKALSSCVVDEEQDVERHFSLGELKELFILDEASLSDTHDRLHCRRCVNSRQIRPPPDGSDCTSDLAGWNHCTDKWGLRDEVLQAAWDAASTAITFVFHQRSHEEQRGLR

[18] = target: T3, DNA repair protein RAD52 homolog (Homo sapiens, UniProt P43351); format: functional, biochemical
T3 sequence (P43351 whole entry): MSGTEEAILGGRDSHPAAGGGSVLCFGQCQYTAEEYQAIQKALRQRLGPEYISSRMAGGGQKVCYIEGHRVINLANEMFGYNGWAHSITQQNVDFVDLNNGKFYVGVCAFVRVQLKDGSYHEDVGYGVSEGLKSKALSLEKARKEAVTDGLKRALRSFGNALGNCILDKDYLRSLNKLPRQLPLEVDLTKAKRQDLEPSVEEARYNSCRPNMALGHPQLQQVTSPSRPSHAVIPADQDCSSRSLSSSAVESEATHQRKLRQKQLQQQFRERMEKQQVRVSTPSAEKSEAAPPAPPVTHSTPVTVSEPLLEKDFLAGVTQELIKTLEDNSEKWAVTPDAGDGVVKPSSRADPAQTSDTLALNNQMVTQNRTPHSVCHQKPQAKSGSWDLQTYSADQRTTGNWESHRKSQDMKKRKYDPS

[19] = HepG2 cell cytotoxicity, dose response, cytotoxicity control, plate reader, cherry-pick, antagonist series (AID 743416); format: functional, cell-based
[20] = HEK293 cell cytotoxicity, dose response, cytotoxicity control, plate reader, cherry-picked samples (AID 743446); format: functional, cell-based
[21] = LGR2 antagonists, dose response, cell-based, HEK293, CRE-luciferase reporter, cherry pick, set 2 (AID 743343); format: functional;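 further: transfected cells were stimulated with diluted bursicon conditioned medium after compound addition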
[22] = A549 cell cytotoxicity, dose response, cytotoxicity control, plate reader, cherry-pick, antagonist series (AID 743412); format: functional, cell-based
[23] = MC4R antagonists, dose response, counter-screen for LGR2 antagonist project, cell-based, plate reader, cherry pick (AID 743444); format: functional;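 further: transfected HEK 293 cells stimulated with alpha-MSH peptide; potency of inhibitors of the alpha-MSH evoked signal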
[24] = target: T4, Tyrosyl-DNA phosphodiesterase 2 (Homo sapiens, UniProt O95551); assay: human TDP2 enzyme inhibitors, dose response, biochemical, epi absorbance, IC50 (AID 743297)
T4 sequence (O95551 whole entry): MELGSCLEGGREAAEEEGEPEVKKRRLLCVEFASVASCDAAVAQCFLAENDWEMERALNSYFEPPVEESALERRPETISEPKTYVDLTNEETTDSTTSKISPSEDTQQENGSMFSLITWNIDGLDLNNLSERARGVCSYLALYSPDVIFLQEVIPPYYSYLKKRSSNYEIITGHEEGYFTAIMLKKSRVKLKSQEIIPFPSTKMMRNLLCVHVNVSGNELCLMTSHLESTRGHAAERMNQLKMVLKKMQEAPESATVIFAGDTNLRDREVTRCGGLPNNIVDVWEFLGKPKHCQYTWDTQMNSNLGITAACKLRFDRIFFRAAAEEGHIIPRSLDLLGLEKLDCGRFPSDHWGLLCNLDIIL

Aminopeptidase N = target: T5, Aminopeptidase N (Plasmodium falciparum FcB1/Columbia, UniProt O96935); assay: P. falciparum M1AAP inhibitors, biochemical, fluorogenic H-Leu-NHMec substrate, 1536-well (AID 1445); parameters: species or system Plasmodium falciparum 3D7, 3D7
T5 sequence (O96935 whole entry): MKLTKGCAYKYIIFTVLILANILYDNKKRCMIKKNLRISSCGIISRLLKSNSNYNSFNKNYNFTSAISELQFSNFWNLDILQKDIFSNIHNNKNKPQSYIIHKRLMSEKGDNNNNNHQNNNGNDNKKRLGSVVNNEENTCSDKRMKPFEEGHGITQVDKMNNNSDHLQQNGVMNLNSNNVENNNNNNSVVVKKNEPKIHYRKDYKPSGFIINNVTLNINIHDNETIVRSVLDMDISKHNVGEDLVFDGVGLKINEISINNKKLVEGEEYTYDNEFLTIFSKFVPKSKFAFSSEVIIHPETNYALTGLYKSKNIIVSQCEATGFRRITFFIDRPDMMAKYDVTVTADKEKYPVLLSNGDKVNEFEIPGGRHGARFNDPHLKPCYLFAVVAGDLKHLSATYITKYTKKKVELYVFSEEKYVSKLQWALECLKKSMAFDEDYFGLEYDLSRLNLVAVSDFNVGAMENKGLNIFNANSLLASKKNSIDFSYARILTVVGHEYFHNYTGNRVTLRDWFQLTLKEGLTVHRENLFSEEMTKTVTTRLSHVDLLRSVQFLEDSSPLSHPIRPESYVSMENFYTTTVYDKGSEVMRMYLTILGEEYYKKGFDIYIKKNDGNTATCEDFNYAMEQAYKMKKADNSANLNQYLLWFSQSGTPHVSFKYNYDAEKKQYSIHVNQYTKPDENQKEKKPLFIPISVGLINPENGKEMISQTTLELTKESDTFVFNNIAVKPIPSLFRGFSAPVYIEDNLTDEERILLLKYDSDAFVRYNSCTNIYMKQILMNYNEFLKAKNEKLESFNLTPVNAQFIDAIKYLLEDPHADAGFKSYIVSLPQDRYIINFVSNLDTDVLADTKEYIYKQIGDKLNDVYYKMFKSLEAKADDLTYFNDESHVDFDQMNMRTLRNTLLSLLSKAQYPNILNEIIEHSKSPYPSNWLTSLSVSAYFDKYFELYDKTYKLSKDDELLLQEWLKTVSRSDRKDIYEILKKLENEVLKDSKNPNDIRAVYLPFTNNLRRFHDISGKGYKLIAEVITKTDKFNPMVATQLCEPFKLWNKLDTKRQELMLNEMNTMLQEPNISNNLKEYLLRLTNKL

SMILES: Cc1cc(N=Nc2ccc3ccccc3c2)ccc1O
- EC50 [1]: > 67.6 µM (inactive)
- AC50 [2]: 3.23 µM (active)
- AC50 [3]: 3.92 µM (active)

SMILES: COc1ccc(S(=O)(=O)N(C)C[C@H]2OCCCC[C@H](C)Oc3ccc(NS(=O)(=O)c4ccc(F)cc4)cc3C(=O)N([C@@H](C)CO)C[C@@H]2C)cc1
- AC50 [4]: 46.1 µM (active)
- AC50 [5]: 21.5 µM (active)
- AC50 (Paired box protein Pax-8): 4.67 µM (active)
- AC50 [6]: 56.8 µM (active)

SMILES: Cc1cc(OCC(O)CNC(C)c2ccccc2)ccc1C(C)C (stereo not drawn)
- AC50 [7]: 13.3 µM (active)
- AC50 [8]: 2.75 µM (active)
- AC50 [9]: 1.85 µM (active)
- AC50 [10]: 3.99 µM (active)
- AC50 [11]: 7.78 µM (active)

SMILES: CC1(C)Cc2c(ccc3ccccc23)C(=O)N1
- AC50 [7]: 47.6 µM (active)
- AC50 [8]: 4.84 µM (active)
- AC50 (Cytochrome P450 2C9): inconclusive
- AC50 [9]: 8.55 µM (active)
- AC50 [12]: 22.4 µM (active)
- AC50 [10]: 14.1 µM (active)
- AC50 [11]: 2.95 µM (active)

SMILES: Cc1nc2sc(-c3ccccc3)nn2c(=O)c1Br
- EC50 [1]: > 67.5 µM (inactive)

SMILES: CC(C)Oc1cc(O)c2c(=O)c(-c3ccc(O)cc3)coc2c1
- EC50 [1]: > 67.6 µM (inactive)

SMILES: COc1ccc(OC)c(NC(=O)COC(=O)c2c3c(nc4ccccc24)CCCC3)c1
- IC50 [13]: > 69.5 µM (inactive)
- IC50 (H9c2): > 79 µM (inactive)
- AC50 [14]: > 70 µM (inactive)
- AC50 [15]: 8.67 µM (active)
- IC50 [16]: > 69.5 µM (inactive)

SMILES: CC(=O)Nc1cc(-c2ccc(N3CCN(C)CC3)cc2)cn2c(-c3ccc(S(C)(=O)=O)cc3)cnc12
- AC50 [17]: 20.3 µM (active)
- AC50 [18]: 4.37 µM (active)

SMILES: COc1ccc(CC(=O)Nc2cccc(-c3nnc(-c4ccc(C)cc4)o3)c2)cc1OC
- AC50 [19]: 30.3 µM (active)
- AC50 [20]: 10.7 µM (active)
- AC50 [21]: 7.65 µM (active)
- AC50 [22]: 33.4 µM (active)
- AC50 [23]: 8.14 µM (active)

SMILES: Cc1ccc(S(=O)(=O)Nc2ccc3c(c2)C(=O)N([C@H](C)CO)C[C@H](C)[C@@H](CN(C)S(=O)(=O)c2ccc(Cl)cc2)OCCCC[C@H](C)O3)cc1
- AC50 [4]: > 70 µM (inactive)
- AC50 [5]: 14.4 µM (active)
- AC50 (Paired box protein Pax-8): 3.2 µM (active)

SMILES: CCCCn1c(NS(=O)(=O)c2ccccc2)c(C(=O)OCC)c2nc3ccccc3nc21
- IC50 [24]: > 128 µM (inactive)
- IC50 (Aminopeptidase N): 74.4 µM (active)
